# Measurements as given in patent publication US20070037799A1, “Fungicide ternary active ingredient combinations” (Bayer Cropscience Aktiengesellschaft, priority 2003, published 2007).
# System: Erysiphe graminis f. sp. Tritici
# Experiment: Erysiphe test (wheat)/curative
# Assay type: in vivo, Erysiphe graminis f. sp. Tritici on wheat
# Conditions: curative, sprayed 48 hours after inoculation, application rate 50 g/ha of each active compound, evaluation 8 days after inoculation, 0% = control, 100% = no infection
# Protocol: The efficacy here is determined in %. 0% denotes an efficacy which corresponds to that of the control, while an efficacy of 100% means that no infection is observed.
# To produce a suitable preparation of active compound, 1 part by weight of active compound or active compound combination is mixed with the stated amounts of solvent and emulsifier, and the concentrate is diluted with water to the desired concentration.
# To test for curative activity, young plants are dusted with spores of Erysiphe graminis f. sp. Tritici. 48 hours after the inoculation, the plants are sprayed with the preparation of active compound at the stated application rate.
# The plants are placed in a greenhouse at a temperature of about 20° C. and a relative atmospheric humidity of about 80% to promote the development of mildew pustules.
# Evaluation is carried out 8 days after the inoculation. 0% means an efficacy which corresponds to that of the control, whereas an efficacy of 100% means that no infection is observed.
row,Structure (SMILES),Efficacy in % found (activity found) [%]
1,"CON=C(C1=NOCCO1)c1ccccc1Oc1ncnc(Oc2ccccc2Cl)c1F [(I) fluoxastrobin, 3-[1-[2-(4-<2-chlorophenoxy>-5-fluoropyrimid-6-yloxy)phenyl]-1-(methoximino)methyl]-5,6-dihydro-1,4,2-dioxazine]",11
2,"CC(C)(C)C(O)(CCc1ccc(Cl)cc1)Cn1cncn1 (stereo not drawn) [(III) tebucinazole, tebucinazole]",22
3,"OC(Cc1ccccc1Cl)(Cn1nc[nH]c1=S)C1(Cl)CC1 (stereo not drawn) [(II) prothioconazole, prothioconazole]",0
